Assay results published in patent publication US6514997B2, “Antipicornaviral compounds and compositions, their pharmaceutical uses, and materials for their synthesis” (Agouron Pharmaceuticals, Inc., priority 1999, dated 2003).
Where two headings read alike, the source gives them in different places.

Legend:
[1] = tested on: MRC-5 cells; assay: Cytotoxicity (CC50) in uninfected MRC-5 cells, XTT dye reduction; format: cell-based, human
Procedure: (§1) Echovirus type 11 (ECHO 11) was purchased from ATCC (Rockville, Md.). Virus stocks were propagated and antiviral assays were performed in MRC-5 cells (ATCC). Cells were grown in minimal essential medium with 10% fetal bovine serum (Life Technologies, Gaithersburg, Md.). The ability of the compounds of this invention to protect cells against ECHO 11 infection was measured by the XTT dye reduction method (Weislow et al., J. Natl. Cancer Inst. (1989), vol. 81, 577-586). MRC-5 cells were infected with ECHO 11 at an m.o.i. of 0.003 or 0.004, respectively, or mock-infected with medium only. Infected or uninfected cells were added at 1×10^4 cells per well and incubated with appropriate concentrations of compound. Four days later, XTT/PMS was added to test plates, and the amount of formazan produced was quantified spectrophotometrically at 450/650 nm. […] The therapeutic index (TI) was calculated by dividing the CC50 by the EC50. Activity of the compounds against enterovirus type 70 (EV 70) may be measured by the same assay as described above in this section. Enterovirus type 70 (EV 70) may be obtained from the American Type Culture Collection ATCC (Rockville, Md.).

[2] = as above; format: cell-based, human; settings: human, MRC-5 cells, uninfected (mock-infected)
Procedure: as §1

[3] = tested on: Echovirus type 11 (ECHO 11); assay: Anti-echoviral cell culture assay (XTT, EC50), ECHO 11; format: cell-based, echovirus 11 in MRC-5 cells; settings: Enterovirus B
Procedure: Anti-Echoviral and Anti-Enteroviral Cell Culture Assays
as §1

[4] = biological target: T1, Recombinant rhinovirus 3C protease, serotype 14 (Human rhinovirus 14, UniProt P03303); assay: Inhibition of rhinovirus 3C protease (FRET assay, kobs/[I]), serotype 14; format: biochemical
T1 construct: Recombinant rhinovirus 3C proteases; made in house
T1 sequence (P03303 1538-1719): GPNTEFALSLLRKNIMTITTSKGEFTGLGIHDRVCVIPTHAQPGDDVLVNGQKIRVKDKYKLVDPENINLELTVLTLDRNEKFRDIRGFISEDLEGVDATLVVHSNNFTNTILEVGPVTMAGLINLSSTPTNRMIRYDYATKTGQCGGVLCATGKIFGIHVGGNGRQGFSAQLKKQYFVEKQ
Outline: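 kobs/[I] values came from progress curves of reactions started by adding 50-100 nM protease to buffer (50 mM tris pH 7.6, 1 mM EDTA, 2% DMSO) containing compound and ~1 μM quenched DABCYL-EDANS substrate. Rising EDANS fluorescence reported cleavage.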

[5] = tested on: echovirus 6 (ECHO-6); assay: Anti-echoviral cell culture assay (EC50), ECHO-6; format: cell-based; settings: Enterovirus B
[6] = Cytotoxicity (CC50), cell line not stated; format: cell-based
[7] = tested on: coxsackievirus B5 (CVB5); assay: Antiviral cell culture assay (EC50), coxsackievirus B5; format: cell-based; settings: Enterovirus B
[8] = tested on: echovirus 9 (ECHO-9); assay: Antiviral cell culture assay (EC50), echovirus 9; format: cell-based; settings: Enterovirus B; ECHO9
[9] = tested on: coxsackievirus B2 (CVB2); assay: Antiviral cell culture assay (EC50), coxsackievirus B2; format: cell-based; settings: Enterovirus B
[10] = pH 7.6, HRV-14, read-out: kobs/[I] (3C protease inhibition activity)
[11] = pH 7.6, HRV-14 3C protease, read-out: kobs/[I] (3C protease inhibition activity)

Structure (SMILES) | CC50 ([1]; line of ECHO-6) [nM] | CC50 ([1]; line of ECHO-9) [nM] | CC50 at 4 days ([2]; line of ECHO-11) [nM] | EC50 [3] [nM] | kinact/KI [4, 10] [M⁻¹ s⁻¹] | EC50 [5] [nM] | also measured
CCOC(=O)/C=C/[C@H](C[C@@H]1CCNC1=O)NC(=O)[C@H](CC)n1cccc(NC(=O)c2cc(C)on2)c1=O [Compound 26, trans-(2′S,3″″S,4S)-4-(2′-{3″-[(5′″-Methylisoxazole-3′″-carbonyl)amino]-2″-oxo-2″H-pyridin-1″-yl}butyrylamino)-5-(2″″-oxopyrrolidin-3″″-yl)pent-2-enoic Acid Ethyl Ester] | > 10000 | > 10000 | > 10000 | 36 | 170000 | 17 | 
C#CC[C@@H](C(=O)N[C@H](/C=C/C(=O)OCC)C[C@@H]1CCNC1=O)n1cccc(NC(=O)c2cc(C)on2)c1=O [Compound 31, trans-(2′S,3″″S,4S)-4-(2′-{3″-[(5′″-Methyl-isoxazole-3′″-carbonyl)amino]-2″-oxo-2″H-pyridin-1″-yl}pent-4′-ynoyl-amino)-5-(2″″-oxopyrrolidin-3″″-yl)pent-2-enoic Acid Ethyl Ester] |  | > 10000 |  | 13 |  | 21 | CC50 ([1]; line of ECHO-11): > 10000 nM; CC50 at 4 days ([2]; line of ECHO-6): > 10000 nM; kinact/KI ([4]; pH 7.6, read-out: kobs/[I] (3C protease inhibition activity)): 223000 M⁻¹ s⁻¹
CCOC(=O)/C=C/[C@H](C[C@@H]1CCNC1=O)NC(=O)[C@H](Cc1ccc(F)c(F)c1)n1cccc(NC(=O)c2cc(C)on2)c1=O [Compound 33, trans-(2′S,3′″″S,4S)-4-(3′-(3″,4″-Difluorophenyl)-2′-{3′″-[(5″″-methylisoxazole-3″″-carbonyl)amino]-2′″-oxo-2′″H-pyridin-1′″-yl}propionylamino)-5-(2′″″-oxopyrrolidin-3′″″-yl)pent-2-enoic Acid Ethyl Ester] | > 10000 | > 10000 | > 10000 | 16 | 1.8e+06 | 15 | 
C#CC[C@@H](C(=O)N[C@H](/C=C/C(=O)OC(C)(C)C)C[C@@H]1CCNC1=O)n1cccc(NC(=O)c2cc(C)on2)c1=O [Compound 41, trans-(2′S,3′″″S,4S)-4-[2′-(3″-{[1′″-(5″″-Methylisoxazol-3″″-yl)methanoyl]amino}-2′″-oxo-2′″H-pyridin-1′″-yl)pent-4″-ynoylamino]-5-(2′″″-oxopyrrolidin-3′″″-yl)pent-2-enoic Acid tert-Butyl Ester] | > 10000 | > 10000 | > 10000 | 186 | 60500 | 147 | melting point: 195 °C (dec.)
Cc1cc(C(=O)Nc2cccn([C@@H](Cc3ccc(F)c(F)c3)C(=O)N[C@H](/C=C/C(=O)OC(C)C)C[C@@H]3CCNC3=O)c2=O)no1 [Compound 48, trans-(2′S,3″″″S,4S)-4-[3′-(3″,4″-Difluorophenyl)-2′-(3′″-{[1″″-(5′″″-methylisoxazol-3′″″-yl)methanoyl]amino}-2″″-oxo-2″″H-pyridin-1″″-yl)propanoylamino]-5-(2″″″-oxopyrrolidin-3″″″-yl)pent-2-enoic Acid Isopropyl Ester] |  |  |  |  |  |  | CC50 at 4 days ([2]; line of ECHO-9): > 10000 nM
C#CC[C@@H](C(=O)N[C@H](/C=C/C(=O)OC1CCC1)C[C@@H]1CCNC1=O)n1cccc(NC(=O)c2cc(C)on2)c1=O [Compound 53, trans-(2′S,3′″″S,4S)-4-[2′-(3″-{[1′″-(5″″-Methylisoxazol-3″″-yl)methanoyl]amino}-2′″-oxo-2′″H-pyridin-1′″-yl)pent-4″-ynoylamino]-5-(2′″″-oxopyrrolidin-3′″″-yl)pent-2-enoic Acid Cyclobutyl Ester] |  |  |  |  | 207000 |  | CC50 at 4 days ([2]; line of ECHO-9): > 10000 nM
CC[C@@H](C(=O)N[C@H](/C=C/C(=O)OCc1ccccc1)C[C@@H]1CCNC1=O)n1cccc(NC(=O)c2cc(C)on2)c1=O [Compound 62, trans-(2′S,3′″″S,4S)-4-[2′-(3″-{[1′″-(5″″-Methylisoxazol-3″″-yl)methanoyl]amino}-2′″oxo-2′″H-pyridin-1′″-yl)butanoylamino]-5-(2′″″-oxopyrrolidin-3′″″-yl)pent-2-enoic Acid Benzyl Ester] |  |  |  |  |  |  | CC50 ([6]; CVB2): > 10000 nM; CC50 ([6]; CVB5): > 10000 nM; CC50 ([6]; ECHO9): > 10000 nM; EC50 [7]: 20 nM; EC50 [8]: 4 nM; kinact/KI [4, 11]: 210000 M⁻¹ s⁻¹; EC50 [9]: 16 nM
C#CC[C@@H](C(=O)N[C@H](/C=C/C(=O)OCc1ccccc1)C[C@@H]1CCNC1=O)n1cccc(NC(=O)c2cc(C)on2)c1=O [Compound 63, trans-(2′S,3′″″S,4S)-4-[2′-(3″-{[1′″-(5″″-Methylisoxazol-3″″-yl)methanoyl]amino}-2′″-oxo-2′″H-pyridin-1′″-yl)pent-4″-ynoylamino]-5-(2′″″-oxopyrrolidin-3′″″-yl)pent-2-enoic Acid Benzyl Ester] |  |  |  |  |  |  | CC50 ([6]; CVB2): > 10000 nM; CC50 ([6]; CVB5): > 10000 nM; CC50 ([6]; ECHO9): > 10000 nM; EC50 [7]: 10 nM; EC50 [8]: 2 nM; kinact/KI [4, 11]: 300000 M⁻¹ s⁻¹; EC50 [9]: 12 nM
